Non-standard residues stand in square brackets, D forms with d. Residues, ends and D or L forms follow the SMILES beside them.
How the values were obtained:
S. aureus peptidoglycan = experiment: Peptidoglycan-binding assay; set-up: species or system Staphylococcus aureus; settings: biotin-labeled peptides on immobilized peptidoglycan; 37 °C, 2 h; avidin-labeled peroxidase, absorbance 450 nm; triplicate assays
Protocol: Peptidoglycan-binding assays were performed as previously described with some modifications. Peptidoglycan from S. aureus (100 μg/ml) was suspended in 0.2% trifluoroacetic acid and sonicated twice for 10 sec at setting 1 using a Branson sonifier model S-150D. The peptidoglycan suspension (50 μl) was used to coat the wells of a flat bottom 96-well microplate (Thermo Fisher Scientific). The plate was incubated at room temperature until the water evaporated. The plate was placed at 60 °C for 1 h to dry out completely, and then blocked with 200 μl of 5 mg/ml bovine serum albumin in binding buffer (10 mM phosphate buffer (pH 6.0) containing 130 mM sodium chloride, 0.05% Tween 20, and 0.01% trifluoroacetic acid) at 37 °C for 2 h. The plate was washed four times with 200 μl of binding buffer. Biotin-labeled peptides in 100 μl of binding buffer containing 0.5% dimethyl sulfoxide were added to the wells and incubated at 37 °C for 2 h. Detection of biotin-labeled peptides was performed using Vectastain ABC reagent (Vector Laboratories) according to manufacturer’s instructions. The wells were washed four times with binding buffer, then 100 μl of avidin-labeled peroxidase was added to each well, and the plate was incubated at 37 °C for 1 h. The wells were washed again as described above. […] Absorbance was measured at 450 nm.

S. aureus = experiment: Assay for membrane permeability (ethidium influx); type: cell-based, Staphylococcus aureus; settings: 20 μg/ml peptide, fluorescence for 180 sec, 10 mM phosphate buffer pH 6.0, 130 mM NaCl, 0.2% BSA
Protocol: To examine membrane permeability, ethidium influx rates were examined as previously described. S. aureus suspension cultures were adjusted to an OD600 of 0.4 in 10 mM phosphate buffer (pH 6.0) containing 130 mM sodium chloride and 0.2% bovine serum albumin. Then, peptide in dimethyl sulfoxide (8 μl) or dimethyl sulfoxide alone (8 μl) was added to 2 ml of S. aureus suspensions. At 30 sec after the addition of peptide, ethidium bromide was added to a final concentration of 5 μg/ml, and fluorescence of the ethidium-nucleic acid complex was monitored using a RF-5300PC spectrofluorometer (Shimadzu). Excitation and emission wavelengths were 545 nm with 5 nm slits and 600 nm with 10 nm slits, respectively.

## CC(C)C[C@@H](NC(=O)[C@H](N)CCCCN)C(=O)N[C@H](CCCCN)C(=O)N[C@H](CC(C)C)C(=O)N[C@H](CC(C)C)C(=O)N[C@H](CC(C)C)C(=O)N[C@H](CC(C)C)C(=O)N[C@H](CC(C)C)C(=O)N[C@H](CCCCN)C(=O)N[C@H](CC(C)C)C(=O)N[C@H](CCCCN)C(N)=O [D-form KLKLLLLLKLK-NH2] (H-[dK][dL][dK][dL][dL][dL][dL][dL][dK][dL][dK]-NH2; N-terminus assumed)
S. aureus peptidoglycan
  affinity for S. aureus peptidoglycan, D-form compared with L-form: higher affinity
S. aureus
  ethidium bromide influx rate: higher
